We go through two molecules from article PMC10797628.

Substitutions are numbered along the chain they refer to. Like-named read-outs stand apart in the source and are kept apart here.

Assay [1] concerns the target T1, S5.42A 5-HT1A receptor (Homo sapiens, UniProt P08908, S199A).
T1 sequence (P08908 1-422 S199A): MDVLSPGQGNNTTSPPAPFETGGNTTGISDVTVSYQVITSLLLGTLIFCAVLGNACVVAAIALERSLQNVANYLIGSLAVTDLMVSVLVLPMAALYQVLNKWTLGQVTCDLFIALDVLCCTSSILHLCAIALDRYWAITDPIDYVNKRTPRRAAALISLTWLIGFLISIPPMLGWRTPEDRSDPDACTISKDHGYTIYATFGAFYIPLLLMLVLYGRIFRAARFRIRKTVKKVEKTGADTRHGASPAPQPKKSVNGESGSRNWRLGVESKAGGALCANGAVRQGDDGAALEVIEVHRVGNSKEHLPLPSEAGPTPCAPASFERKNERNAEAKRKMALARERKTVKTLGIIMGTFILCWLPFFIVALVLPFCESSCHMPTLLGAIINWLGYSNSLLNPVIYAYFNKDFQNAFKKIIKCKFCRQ
Put plainly: Radioligand binding, S5.42A 5-HT1A.
Procedure: (§4) 48 hours after transfection with the desired receptor construct, cells were isolated for saturation and competition binding assays as previously described.[47],[48],[57] Saturation and competition radioligand binding assays were conducted in an assay buffer consisting of 50 mM Tris HCl, 10 mM MgCl2, and 0.1 mM EDTA in filtered deionized water. […] Briefly, 5–10 μg of the receptor protein, as determined by a Thermo Fisher Pierce BCA protein assay kit, was incubated with 8 concentrations of radioligand in triplicate to determine total binding. […] Nonspecific binding was determined as above for saturation assays.
(§5) For radioligand binding data, nonspecific binding was subtracted from the total binding to get specific binding. Saturation binding data was fit to the “binding saturation-specific binding with hill slope” model. Competition binding data were fit to the “binding competition-one-site fit Ki” non-linear regression model and transformed to pKi values, reported as mean ± SD.
(§6) is 50 mM Tris HCl, 10 mM MgCl2 and 0.1 mM EDTA in filtered deionized water.

For assay [2], the target named is T1, S5.42A 5-HT1A receptor. Put plainly: cAMP accumulation in HEK293T cells, S5.42A 5-HT1A. The assay is classed as cell-based. On the set-up: mutated in house (Quikchange II) HTR01A0000; host or cells: HEK293T. To be noted: point-mutated receptor, 3 independent experiments, read-out: pEC50 5-HT1A Receptor S5.42A (converted). Here is the method:
(§1) Briefly, cells transfected with the desired receptor construct and compounds were incubated in the dark for 90 min at 37 °C. After incubation, cAMP detection reagents were added, and TR-FRET was used to quantify the cAMP produced.
(§2) The functional activity of compounds was determined by stimulating cells expressing the desired receptor with FSK and test compound in parallel with 12 known concentrations of cAMP. The known concentrations of cAMP were used to create a standard curve for each experiment that was used to interpolate the unknown values of cAMP in wells with test compounds. […] The EC50 and EMAX values were determined using the “dose response – log[agonist] vs response (three parameter)” nonlinear regression model in Prism and transformed to pEC50 values, reported as mean ± SD.
(§3) Summary of functional assay conditions at various 5-HT1 receptor point mutation constructs.

The next assay has as its target T2, N7.39T 5-HT1A receptor (Homo sapiens, UniProt P08908, N386T).
T2 sequence (P08908 1-422 N386T): T1 sequence (P08908 1-422 S199A) with A199S, N386T
Put plainly: Radioligand binding, N7.39T 5-HT1A.

In another assay the target is T3, Y5.38F 5-HT1A receptor (Homo sapiens, UniProt P08908, Y195F).
T3 sequence (P08908 1-422 Y195F): T1 sequence (P08908 1-422 S199A) with Y195F, A199S
Put plainly: cAMP accumulation in HEK293T cells, Y5.38F 5-HT1A. The assay is classed as cell-based. Further details: mutated in house (Quikchange II) HTR01A0000; host or cells: HEK293T. As to conditions: point-mutated receptor, 3 independent experiments, read-out: pEC50 5-HT1A Receptor Y5.38F (converted). The protocol: as §1, §2, §3
For orientation: Changes in cAMP serve as a functional read-out for many G protein-coupled receptors.

The target of the next assay is T4, Y5.38A 5-HT1A receptor (Homo sapiens, UniProt P08908, Y195A).
T4 sequence (P08908 1-422 Y195A): T1 sequence (P08908 1-422 S199A) with Y195A, A199S
Put plainly: Radioligand binding, Y5.38A 5-HT1A.

Another assay addresses T5, human 5-HT1A receptor (Homo sapiens, UniProt P08908).
T5 construct: host or cells: HEK293T
T5 sequence (P08908 1-422): T1 sequence (P08908 1-422 S199A) with A199S
Put plainly: Radioligand binding (saturation and competition), WT 5-HT1A.

Procedure for N7.39T 5-HT1A receptor: as §4, §5, §6
Procedure for Y5.38A 5-HT1A receptor: as §4, §5, §6

Turning to `Fc1ccccc1-c1cccc2c1CC[C@H](N1CCCC1)C2` [(S)-PFPT], the Ki is 1.48 nM at S5.42A 5-HT1A receptor [1], 8.51 nM on N7.39T 5-HT1A receptor, 0.955 nM on Y5.38A 5-HT1A receptor and 1.26 nM on human 5-HT1A receptor (read-out: Affinity (pKi ± SD) 5-HT1A (converted)). The EC50 was 1.62 nM at S5.42A 5-HT1A receptor [2] and 2.09 nM on Y5.38F 5-HT1A receptor.

`CN(C)[C@H]1CCc2c(cccc2-c2cccc3ccccc23)C1` [(S)-NAP]: the Ki at S5.42A 5-HT1A receptor [1] is 63.1 nM; at N7.39T 5-HT1A receptor it was 66.1 nM; on Y5.38A 5-HT1A receptor, 245 nM; on human 5-HT1A receptor (Affinity (pKi ± SD) 5-HT1A, WT receptor, [^3H]5-CT competition, mean ± SD) it was 61.7 nM. The EC50 on S5.42A 5-HT1A receptor [2] was 363 nM; on Y5.38F 5-HT1A receptor it was 380 nM.
